From US4698350A, “1-ethyl-6-fluoro-1,4-dihydro- 7-(2,6-dimethyl-4-pyridinyl)-4-oxo-3-quinolinecarboxylic acid and antibacterial use thereof” (Sterling Drug Inc., priority 1984, dated 1987)
In brackets after ≈: the same amount, converted by molar mass. Read-outs that look alike come from different tables or passages of the source.

Key:
A. actinomycetemcomitans = experiment: Agar dilution MIC, anaerobic microorganisms; assay type: cell-based; details: Aggregatibacter actinomycetemcomitans, 48 h; A. actinomycetemcomitans; read-out: MIC
Procedure: (§1) 1. Maintenance. Prior to use, all strains were maintained in the lyophilized state. During the study, cultures were examined on blood agar basal medium supplemented with 5.0% (v/v) defibrinated rabbit blood. Culture transfer was accomplished weekly with all cultures being incubated in an anaerobic atmosphere (GasPak jar; BBL).
(§2) 2. Agar Medium. The basal test medium consisted of trypticase soy agar (40 g), yeast extract (1 g), glucose (2 g) and 960 ml of distilled water pH 7.2. [Mashimo et al., J. Clin. Micro. 17, 187-191 (1983)]. Subsequent to sterilization and cooling to 50° C., the medium was supplemented with 4% (v/v) defibrinated rabbit blood and 0.5 μg/ml menadione (Vitamin K3) The agent under evaluation was also added at this time to the concentration desired. Subsequent to pouring of the plates, they were permitted to dry at 4° C. for 24 hr.
(§3) 3. Determination of Agent MIC. The minimal inhibitory concentration (MIC) of the various test agents was determined using an agar dilution technique. Agents and appropriate reference compounds were added to achieve a series of concentrations ranging between 32 μg/ml and 0.007 μg/ml. The inocula were prepared from 96-hr. cultures grown on the maintenance medium. Subsequent to a purity evaluation, colonies were removed and suspended in trypticase soy broth supplemented with 5 μg/ml menadione and 2% lysed rabbit blood filtrate to achieve an OD650 of 0.1 (this corresponded to approximately 10^8 cells/ml). Cultures were inoculated aerobically on the modified trypticase soy blood agar plates by use of a Steer's replicator (which delivers about 10^5 cells per spot). The plates were allowed to dry for a time not exceeding 30 min. and then incubated at 37° C. under an atmosphere of […], 10% H2 and 5% CO2 maintained in an anaerobic chamber (Coy Manufacturing Co.) for 48 hr. The MIC was defined as the lowest concentration completely inhibiting growth.
(§4) Tetracycline stock solutions (1 mg/ml) were made subsequent to dissolution in water. Stock solutions (1 mg/ml) of the remaining test compounds were made subsequent to dissolution in 1/10 N NaOH.

B. oralis = experiment: Agar dilution MIC, anaerobic microorganisms; assay type: cell-based; details: Hoylesella oralis, 48 h; B. oralis; read-out: MIC
Procedure: as §1, §2, §3, §4

F. polymorphum = experiment: Agar dilution MIC, anaerobic microorganisms; assay type: cell-based; details: 48 h; F. polymorphum; read-out: MIC
Procedure: as §1, §2, §3, §4

B. melaninogenicus = experiment: Agar dilution MIC, anaerobic microorganisms; assay type: cell-based; details: 48 h; B. melaninogenicus; read-out: MIC
Procedure: as §1, §2, §3, §4

Eikenella corrodens = experiment: Agar dilution MIC, anaerobic microorganisms; assay type: cell-based; details: 48 h, read-out: MIC
Procedure: as §1, §2, §3, §4

A. viscosus = experiment: Agar dilution MIC, anaerobic microorganisms; assay type: cell-based; details: Actinomyces viscosus, 48 h; A. viscosus; read-out: MIC
Procedure: as §1, §2, §3, §4

Capnocytophaga suptigena = experiment: Agar dilution MIC, anaerobic microorganisms; assay type: cell-based; details: 48 h; Capnocytophaga suptigena; read-out: MIC
Procedure: as §1, §2, §3, §4

Campylobacter sputorum = experiment: Agar dilution MIC, anaerobic microorganisms; assay type: cell-based; details: 48 h
Procedure: as §1, §2, §3, §4

B. fragilis = experiment: Agar dilution MIC, anaerobic microorganisms; assay type: cell-based; details: Bacteroides fragilis, 48 h; B. fragilis; read-out: MIC
Procedure: as §1, §2, §3, §4

Wolinella recta = experiment: Agar dilution MIC, anaerobic microorganisms; assay type: cell-based; details: Campylobacter rectus, 48 h
Procedure: as §1, §2, §3, §4

F. nucleatum = experiment: Agar dilution MIC, anaerobic microorganisms; assay type: cell-based; details: Fusobacterium nucleatum, 48 h; F. nucleatum; read-out: MIC
Procedure: as §1, §2, §3, §4

B. gingivalis = experiment: Agar dilution MIC, anaerobic microorganisms; assay type: cell-based; details: Porphyromonas gingivalis, 48 h; B. gingivalis; read-out: MIC
Procedure: as §1, §2, §3, §4

B. intermedius = experiment: Agar dilution MIC, anaerobic microorganisms; assay type: cell-based; details: Prevotella intermedia, 48 h; B. intermedius; read-out: MIC
Procedure: as §1, §2, §3, §4

Escherichia coli Vogel = experiment: Mouse protection test, E. coli Vogel infection; assay type: in vivo, ICR mice; Escherichia coli; details: for ED50: Escherichia coli, 168 h, once one-half hour postinfection, read-out: Protective Dose 50% (95% Confidence Limits); for times more efficacious than Win 35,439: E. coli infection
Procedure: ICR mice, female, 18-20 grams each.
Solutions of Win 52,522 and Win 35,439 were prepared by dissolving the appropriate weight of drug in 0.3 to 0.4 ml of 1 N NaOH and then bringing the solutions to the desired volume with distilled water. Methicillin and vancomycin were dissolved directly in distilled water.
The culture was inoculated into 10 ml of Brain Heart Infusion broth and grown statically for 16 hours at 37° C. Fresh tubes of the same broth were inoculated with 0.1 ml portions of the 16 hour broth culture and incubation continued for 5 hours at 37° C. The 5 hour broth culture was finally diluted with saline to provide the test inoculum containing 4.0×10^7 cells/ml.
Mice were inoculated intraperitoneally with 0.5 ml of the bacterial test inoculum.
Mice were medicated subcutaneously or orally once (0.5 ml) one-half hour postinfection.
Deaths were recorded daily for seven days for all tests. Fifty percent protective dose values (PD50's) were calculated using probit analysis [SAS Users Guide: Statistics, 1982 Edition, SAS Institute, Inc., Cary, N.C.].

SMILES | MIC (A. actinomycetemcomitans) | MIC (B. oralis) | MIC (F. polymorphum) | MIC (B. melaninogenicus) | MIC (Eikenella corrodens) | MIC (A. viscosus) | MIC (Capnocytophaga suptigena) | MIC (Campylobacter sputorum) | MIC (B. fragilis) | MIC (Wolinella recta) | MIC (F. nucleatum) | MIC (B. gingivalis) | MIC (B. intermedius) | Survivors/Total (Escherichia coli Vogel; 3.13 mg/kg po) | Survivors/Total (Escherichia coli Vogel; 3.13 mg/kg sc) | Survivors/Total (Escherichia coli Vogel; 6.25 mg/kg po) | Survivors/Total (Escherichia coli Vogel; 6.25 mg/kg sc) | Survivors/Total (Escherichia coli Vogel; 12.5 mg/kg po) | Survivors/Total (Escherichia coli Vogel; 12.5 mg/kg sc) | Survivors/Total (Escherichia coli Vogel; 25 mg/kg po) | further results
CCn1cc(C(=O)O)c(=O)c2ccc(-c3cc(C)nc(C)c3)cc21 [Win 35,439, 1-ethyl-1,4-dihydro-7-(2,6-dimethyl-4-pyridinyl)-4-oxo-3-quinolinecarboxylic acid] | 0.25 µg/mL (≈ 0.776 µM) | > 10 µg/mL | 4 µg/mL (≈ 12.4 µM) | 8 µg/mL (≈ 24.8 µM) | 2 µg/mL (≈ 6.2 µM) | 8 µg/mL (≈ 24.8 µM) | 0.5 µg/mL (≈ 1.55 µM) | > 10 µg/mL | > 10 µg/mL | 0.5 µg/mL (≈ 1.55 µM) | 4 µg/mL (≈ 12.4 µM) | > 10 µg/mL | 0.25 µg/mL (≈ 0.776 µM) | 0/10 | 1/10 | 0/10 | 0/10 | 2/10 | 4/10 | 9/10 | Survivors/Total (Escherichia coli Vogel; 25 mg/kg sc): 10/10; ED50 (Escherichia coli Vogel; po, po): 16.5 mg/kg; ED50 (Escherichia coli Vogel; sc, sc): 13.5 mg/kg
CCn1cc(C(=O)O)c(=O)c2cc(F)c(-c3cc(C)nc(C)c3)cc21 [Win 52,522, 1-ethyl-6-fluoro-1,4-dihydro-7-(2,6-dimethyl-4-pyridinyl)-4-oxo-3-quinolinecarboxylic acid] | 0.12 µg/mL (≈ 0.353 µM) | 4 µg/mL (≈ 11.8 µM) | 0.5 µg/mL (≈ 1.47 µM) | 1 µg/mL (≈ 2.94 µM) | 0.5 µg/mL (≈ 1.47 µM) | 1 µg/mL (≈ 2.94 µM) | 0.06 µg/mL (≈ 0.176 µM) | 8 µg/mL (≈ 23.5 µM) | 4 µg/mL (≈ 11.8 µM) | 0.12 µg/mL (≈ 0.353 µM) | 0.5 µg/mL (≈ 1.47 µM) | 2 µg/mL (≈ 5.88 µM) | 0.06 µg/mL (≈ 0.176 µM) | 0/10 | 0/10 | 2/10 | 8/10 | 9/10 | 10/10 | 10/10 | Survivors/Total (Escherichia coli Vogel; 1.56 mg/kg po): 0/10; Survivors/Total (Escherichia coli Vogel; 1.56 mg/kg sc): 0/10; Survivors/Total (Escherichia coli Vogel; 25 mg/kg sc): 10/10; ED50 (Escherichia coli Vogel; po, po): 8.2 mg/kg; ED50 (Escherichia coli Vogel; sc, sc): ~5.2 mg/kg; times more efficacious than Win 35,439 (Escherichia coli Vogel; p.o.): 2.0 times; times more efficacious than Win 35,439 (Escherichia coli Vogel; s.c.): 2.6 times; PD50 values relative to those of Win 35,439 (Escherichia coli Vogel; subcutaneous and oral): approximately one-half
